From US20100286280A1, “INHIBITORS OF EPPIN/SEMENOGELIN BINDING AS MALE CONTRACEPTIVES” (The University of North Carolina at Chapel Hill, priority 2007, published 2010)
“Also recorded” adds a separate entry of the source.

Legend:
[1] = test system: human spermatozoa; assay: Human sperm motility assay with Compound A4; assay type: cell-based
Excerpt: Human spermatozoa were obtained from the UNC-Hospital clinic, washed and used for testing in a motility assay. Compound A4 reduced the total number of motile sperm in an ejaculate to <10% within one hour. The data are shown below in FIGS. 5 and 6, and in Tables 2 and 3.

[2] = biological target: T1, recombinant Eppin binding to recombinant semenogelin (Homo sapiens, UniProt O95925); assay: Eppin-semenogelin in vitro binding assay (96-well ELISA format, absorption at 450 nm); details: Eppin preincubated with compound dilutions starting at 40 μg/ml; OD 450 nm (FIG. 4)
T1 construct: made in house; host or cells: E. coli strain M15 [pREP-4]
Protocol: In one embodiment, His-tagged recombinant semenogelin is bound to the individual wells of the plate, FLAG-tagged recombinant Eppin is bound to the semenogelin. The recombinant Eppin and recombinant semenogelin will form a complex. Compounds are then individually added to the wells of the plate and allowed to interfere with the Eppin-semenogelin complex formation. An anti-FLAG antibody (such as the M2 antibody sold by Sigma-Aldrich) is then added to the wells of the plate. The inhibition of the binding of Eppin to semenogelin is determined by looking for changes in Eppin-semenogelin binding when the anti-FLAG antibody (such as those used in commercially-available ELISA assays) is added. One can detect the binding of the anti-FLAG antibody to the FLAG tagged Eppin, for example, by looking at the absorption at 450 nm. In another embodiment, compounds are incubated with FLAG-tagged recombinant Eppin before being added to Sg. The anti-FLAG antibody is added after the Eppin-compound mixtures are added to the wells of the plate.
Recombinant Eppin and semenogelin are as described in Wang et al., Biology of Reproduction, 72:1064-1070 (2005). The recombinant Eppin used in the assays described herein has been tagged with a FLAG tag. The recombinant semenogelin is a His-tagged recombinant protein of the fragment of semenogelin starting with amino acid 164 and continuing to amino acid 283. […]

T1 sequence (O95925 22-133): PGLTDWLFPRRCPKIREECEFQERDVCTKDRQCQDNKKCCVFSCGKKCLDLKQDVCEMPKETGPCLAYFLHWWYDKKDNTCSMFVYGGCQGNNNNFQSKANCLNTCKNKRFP

Cl.NC(=O)CNCC(N)=O [Compound A4]
Velocity ([1]; Table 2, swim up + A4 + 1 hr): 15 μm/sec
total distance ([1]; Table 2, swim up + A4 + 1 hr): 222 μm
% Motility ([1]; Table 3, swim up + 1 hour): 7%
Average velocity ([1]; Table 3, swim up + 1 hour): 14.9 μm/sec
Distance ([1]; Table 3, swim up + 1 hour): 222 μm
Straight distance ([1]; Table 3, swim up + 1 hour): 48.7 μm
inhibition of sperm motility (in words) ([1]; human spermatozoa): inhibits their motility, significantly reducing their forward velocity and distance traveled; also recorded: effective at inhibiting sperm motility
total number of motile sperm in an ejaculate ([1]; within one hour): < 10%
inhibition of Eppin-semenogelin binding [2]: effective at inhibiting this binding in a dose dependent manner; also recorded: inhibited Eppin-semenogelin binding in a dose dependent manner
